# From US11000033B2, “Ketone or oxime compound, and herbicide” (NISSAN CHEMICAL CORPORATION, priority 2014, dated 2021)
# Legend:
# Format in all cases: in vivo
# [1] = tested on: Echinochloa oryzacola Vasing.; assay: Test Example 2: herbicidal activity, application during weed generation in submerged conditions (symbol A); conditions: Table 23; application herbicide amount 320 g/ha; grade 0-5 by criteria of Test Example 1
# In short: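 Read-out: herbicidal effect on each species rated on a visual scale 3 weeks after treatment. Plants were raised together from seed in flooded alluvial soil (4 cm water) at 25° C. to 30° C. and treated at one to two leaves by water-surface application of diluted emulsion.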
# Leptochloa chinensis = assay: Test Example 3: herbicidal effect by foliage application, Wagner pot (symbol D); conditions: application herbicide amount 320 g/ha
# In short: (§1)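 Scoring took place 3 weeks after application, using fixed criteria. Plants had been raised from seed for 14 days at 25 to 30 °C in submerged alluvial soil before a diluted emulsion of the test compound was sprayed uniformly on the leaves.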
# Cyperus difformis = assay: Test Example 3: herbicidal effect by foliage application, Wagner pot (symbol E); conditions: application herbicide amount 320 g/ha
# In short: as §1
# [2] = tested on: directly sowed rice plant; assay: Test Example 3: effect on crop by foliage application, Wagner pot (symbol b); conditions: application herbicide amount 320 g/ha
# In short: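 Wagner pot (1/10000 are), alluvial soil, submerged 0.1–0.5 cm; sown E. crus-galli var. crus-galli, L. chinensis, C. difformis, rice; greenhouse 25–30 °C.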
# Setaria viridis = assay: Test Example 4: herbicidal effect by soil treatment (symbol G); conditions: application herbicide amount 320 g/ha
# In short: (§2)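 Seeds were sown in sterilized diluvial soil, covered with about 1.5 cm of soil, and the soil surface was sprayed with a water-diluted emulsion of the compound at a predetermined rate. Plants grew in a greenhouse at 25° C. to 30° C.; effects were scored visually 3 weeks after application.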
# Avena fatua [3] = assay: Test Example 4: herbicidal effect by soil treatment (symbol I); conditions: application herbicide amount 320 g/ha
# In short: as §2
# Alopecurus myosuroides = assay: Test Example 4: herbicidal effect by soil treatment (symbol J); conditions: application herbicide amount 320 g/ha
# In short: as §2
# Lolium multiflorum Lam. = assay: Test Example 4: herbicidal effect by soil treatment (symbol K); conditions: application herbicide amount 320 g/ha
# In short: as §2
# Abutilon theophrasti = assay: Test Example 4: herbicidal effect by soil treatment (symbol M); conditions: application herbicide amount 320 g/ha
# In short: as §2
# Amaranthus retroflexus = assay: Test Example 4: herbicidal effect by soil treatment (symbol N); conditions: application herbicide amount 320 g/ha
# In short: as §2
# Chenopodium album [4] = assay: Test Example 4: herbicidal effect by soil treatment (symbol O); conditions: application herbicide amount 320 g/ha
# In short: as §2
# Galium spurium = assay: Test Example 4: herbicidal effect by soil treatment (symbol Q); conditions: application herbicide amount 320 g/ha
# In short: as §2
# rice = assay: Test Example 4: effect on crop by soil treatment (symbol b); conditions: application herbicide amount 320 g/ha
# In short: (§3)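 Seeds were sown in spots on sterilized diluvial soil in a plastic box and covered with about 1.5 cm of soil. Plants were then grown in a greenhouse at 25° C. to 30° C.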
# wheat = assay: Test Example 4: effect on crop by soil treatment (symbol e); conditions: application herbicide amount 320 g/ha
# In short: as §3
# Avena fatua [5] = assay: Test Example 5: herbicidal effect by foliage application, plastic box (symbol I); conditions: 320 g/ha, 3 weeks after application
# In short: (§4)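 Visual herbicidal score, taken three weeks post-application, of seedlings sprayed on the foliage with water-diluted emulsion at a predetermined amount; plants were 14 days old, greenhouse-raised at 25° C. to 30° C.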
# Chenopodium album [6] = assay: Test Example 5: herbicidal effect by foliage application, plastic box (symbol O); conditions: 320 g/ha, 3 weeks after application
# In short: as §4
# Stellaria media = assay: Test Example 5: herbicidal effect by foliage application, plastic box (symbol P); conditions: 320 g/ha, 3 weeks after application
# In short: as §4
# corn = assay: Test Example 5: effect on crop by foliage application, plastic box (symbol c); conditions: 320 g/ha, 3 weeks after application
# In short: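 Greenhouse culture at 25° C. to 30° C. followed spot-like sowing into sterilized diluvial soil, with seed covered by roughly 1.5 cm of soil.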
Structure (SMILES),"Herbicidal effect grade, A: Echinochloa oryzacola Vasing. [1]","herbicidal effect on D (Leptochloa chinensis), grade 0-5 (Leptochloa chinensis)","herbicidal effect on E, grade 0-5 (Cyperus difformis)","effect on crop b (directly sowed rice plant), grade 0-5 [2]","Herbicidal effect grade, G: Setaria viridis (Setaria viridis)","Herbicidal effect grade, I: Avena fatua (Avena fatua [3])","Herbicidal effect grade, J: Alopecurus myosuroides (Alopecurus myosuroides)","Herbicidal effect grade, K: Lolium multiflorum Lam. (Lolium multiflorum Lam.)","Herbicidal effect grade, M: Abutilon theophrasti (Abutilon theophrasti)","Herbicidal effect grade, N: Amaranthus retroflexus (Amaranthus retroflexus)","Herbicidal effect grade, O: Chenopodium album (Chenopodium album [4])","Herbicidal effect grade, Q: Galium spurium (Galium spurium)","Effect on crop grade, b: directly sowed rice plant (rice)","Effect on crop grade, e: wheat (wheat)","I: Avena fatua, herbicidal effect (criteria of Test Example 1) (Avena fatua [5])","O: Chenopodium album, herbicidal effect (criteria of Test Example 1) (Chenopodium album [6])","P: Stellaria media, herbicidal effect (criteria of Test Example 1) (Stellaria media)","c: corn, effect on crop (criteria of Test Example 1) (corn)","G: Setaria viridis, herbicidal effect grade (Setaria viridis)","I: Avena fatua, herbicidal effect grade (Avena fatua [3])",further results
COc1cc(C)c(C2=C(O)CC(CC(C)=O)C2=O)c(C)c1 (stereo not drawn) [7-020],1 (Herbicidal ratio of 5% or higher and lower than 20%),5 (Herbicidal ratio of 90% or more (almost completely withered)),3 (Herbicidal ratio of 40% or higher and lower than 70%),4 (Herbicidal ratio of 70% or higher and lower than 90%),2 (Herbicidal ratio of 20% or higher and lower than 40%),0 (Herbicidal ratio of 5% or lower (almost no effect)),3 (Herbicidal ratio of 40% or higher and lower than 70%),3 (Herbicidal ratio of 40% or higher and lower than 70%),0 (Herbicidal ratio of 5% or lower (almost no effect)),0 (Herbicidal ratio of 5% or lower (almost no effect)),0 (Herbicidal ratio of 5% or lower (almost no effect)),0 (Herbicidal ratio of 5% or lower (almost no effect)),5 (Herbicidal ratio of 90% or more (almost completely withered)),0 (Herbicidal ratio of 5% or lower (almost no effect)),0 (Herbicidal ratio of 5% or lower (almost no effect)),0 (Herbicidal ratio of 5% or lower (almost no effect)),0 (Herbicidal ratio of 5% or lower (almost no effect)),0 (Herbicidal ratio of 5% or lower (almost no effect)),–,–,–
CON=C(C)CC1CC(O)=C(c2c(C)cc(C)cc2SC)C1=O (stereo not drawn) [6-075],1 (Herbicidal ratio of 5% or higher and lower than 20%),3 (Herbicidal ratio of 40% or higher and lower than 70%),3 (Herbicidal ratio of 40% or higher and lower than 70%),4 (Herbicidal ratio of 70% or higher and lower than 90%),–,–,–,–,–,–,–,–,–,–,5 (Herbicidal ratio of 90% or more (almost completely withered)),0 (Herbicidal ratio of 5% or lower (almost no effect)),0 (Herbicidal ratio of 5% or lower (almost no effect)),4 (Herbicidal ratio of 70% or higher and lower than 90%),0 (Herbicidal ratio of 5% or lower (almost no effect)),0 (Herbicidal ratio of 5% or lower (almost no effect)),"J: Alopecurus myosuroides, herbicidal effect grade (Alopecurus myosuroides): 4 (Herbicidal ratio of 70% or higher and lower than 90%); K: Lolium multiflorum Lam., herbicidal effect grade (Lolium multiflorum Lam.): 4 (Herbicidal ratio of 70% or higher and lower than 90%); M: Abutilon theophrasti, herbicidal effect grade (Abutilon theophrasti): 0 (Herbicidal ratio of 5% or lower (almost no effect)); N: Amaranthus retroflexus, herbicidal effect grade (Amaranthus retroflexus): 0 (Herbicidal ratio of 5% or lower (almost no effect)); O: Chenopodium album, herbicidal effect grade (Chenopodium album [4]): 0 (Herbicidal ratio of 5% or lower (almost no effect)); Q: Galium spurium, herbicidal effect grade (Galium spurium): 0 (Herbicidal ratio of 5% or lower (almost no effect)); b: directly sowed rice plant, effect on crop grade (rice): 0 (Herbicidal ratio of 5% or lower (almost no effect)); e: wheat, effect on crop grade (wheat): 0 (Herbicidal ratio of 5% or lower (almost no effect))"
CON=C(C)CC1CC(OC(=O)COc2ccccc2)=C(c2c(C)cc(-c3ccccc3)cc2OC)C1=O (stereo not drawn) [6-100],5 (Herbicidal ratio of 90% or more (almost completely withered)),5 (Herbicidal ratio of 90% or more (almost completely withered)),5 (Herbicidal ratio of 90% or more (almost completely withered)),5 (Herbicidal ratio of 90% or more (almost completely withered)),5 (Herbicidal ratio of 90% or more (almost completely withered)),5 (Herbicidal ratio of 90% or more (almost completely withered)),5 (Herbicidal ratio of 90% or more (almost completely withered)),5 (Herbicidal ratio of 90% or more (almost completely withered)),4 (Herbicidal ratio of 70% or higher and lower than 90%),5 (Herbicidal ratio of 90% or more (almost completely withered)),5 (Herbicidal ratio of 90% or more (almost completely withered)),1 (Herbicidal ratio of 5% or higher and lower than 20%),5 (Herbicidal ratio of 90% or more (almost completely withered)),3 (Herbicidal ratio of 40% or higher and lower than 70%),5 (Herbicidal ratio of 90% or more (almost completely withered)),4 (Herbicidal ratio of 70% or higher and lower than 90%),3 (Herbicidal ratio of 40% or higher and lower than 70%),5 (Herbicidal ratio of 90% or more (almost completely withered)),–,–,–
"CON=C(C)CC1CC(O)=C(c2c(C)cc(-c3ccc(Cl)cc3)cc2OC)C1=O (stereo not drawn) [6-077, 2-(4′-chloro-3-methoxy-5-methyl-[1,1′-biphenyl]-4-yl)-3-hydroxy-5-{2-(methoxyimino)propyl}cyclopent-2-enone]",5 (Herbicidal ratio of 90% or more (almost completely withered)),5 (Herbicidal ratio of 90% or more (almost completely withered)),5 (Herbicidal ratio of 90% or more (almost completely withered)),5 (Herbicidal ratio of 90% or more (almost completely withered)),–,–,–,–,–,–,–,–,–,–,5 (Herbicidal ratio of 90% or more (almost completely withered)),4 (Herbicidal ratio of 70% or higher and lower than 90%),4 (Herbicidal ratio of 70% or higher and lower than 90%),5 (Herbicidal ratio of 90% or more (almost completely withered)),5 (Herbicidal ratio of 90% or more (almost completely withered)),4 (Herbicidal ratio of 70% or higher and lower than 90%),"J: Alopecurus myosuroides, herbicidal effect grade (Alopecurus myosuroides): 5 (Herbicidal ratio of 90% or more (almost completely withered)); K: Lolium multiflorum Lam., herbicidal effect grade (Lolium multiflorum Lam.): 5 (Herbicidal ratio of 90% or more (almost completely withered)); M: Abutilon theophrasti, herbicidal effect grade (Abutilon theophrasti): 5 (Herbicidal ratio of 90% or more (almost completely withered)); N: Amaranthus retroflexus, herbicidal effect grade (Amaranthus retroflexus): 5 (Herbicidal ratio of 90% or more (almost completely withered)); O: Chenopodium album, herbicidal effect grade (Chenopodium album [4]): 4 (Herbicidal ratio of 70% or higher and lower than 90%); Q: Galium spurium, herbicidal effect grade (Galium spurium): 4 (Herbicidal ratio of 70% or higher and lower than 90%); b: directly sowed rice plant, effect on crop grade (rice): 5 (Herbicidal ratio of 90% or more (almost completely withered)); e: wheat, effect on crop grade (wheat): 0 (Herbicidal ratio of 5% or lower (almost no effect))"
